Data reported in ChEMBL document CHEMBL4828703, “Structure-activity relationship study of THZ531 derivatives enables the discovery of BSJ-01-175 as a dual CDK12/13 covalent inhibitor with efficacy in Ewing sarcoma” (Eur J Med Chem, 2021).
Activity calls are given as the source filed them. The rule behind the calls is not given here.

Columns and labels:
[1] = target: Mitogen-activated protein kinase 9 (Homo sapiens) (UniProt P45984); assay: Inhibition of ADP(ATP)-biotin probe binding to JNK2 in human Kelly cells at 1 uM incubated for 6 hrs by KiNativ profiling analysis; format: cell-based
[2] = Toxicity in nude mouse xenografted with human TC71 cells assessed as body weight loss at 10 mg/kg, ip for 21 days; format: organism-based; conditions: in vivo, 504 h, time 21 day
[3] = target: Serine/threonine-protein kinase 10 (Homo sapiens) (UniProt O94804); assay: Inhibition of ADP(ATP)-biotin probe binding to LOK in human Kelly cells at 1 uM incubated for 6 hrs by KiNativ profiling analysis; format: cell-based
[4] = target: Cyclin-K (Homo sapiens) (UniProt O75909); assay: Binding affinity to CyclinK in CDK12/CyclinK complex (unknown origin) at 10-fold excess concentration incubated for 1 hr by LC-MS analysis
[5] = Cmax in Swiss albino mouse at 3 mg/kg, iv measured upto 24 hrs by LC-MS/MS analysis; format: ADME, organism-based; design: route intravenous, dose 3 mg/kg, time <=24; conditions: in vivo
[6] = Cmax in Swiss albino mouse at 10 mg/kg, po measured upto 24 hrs by LC-MS/MS analysis; format: ADME, organism-based; design: route oral, dose 10 mg/kg, time <=24; conditions: in vivo
[7] = Downregulation of RNA polymerase 2 CTD phosphorylation at Ser5 residue in human Jurkat cells at 0.5 uM incubated for 6 hrs by immunoblotting analysis; format: functional
[8] = Downregulation of RNA polymerase 2 CTD phosphorylation at Ser7 residue in human Jurkat cells at 5 uM incubated for 6 hrs by immunoblotting analysis; format: functional
[9] = target: Calcium/calmodulin-dependent protein kinase type IV (Homo sapiens) (UniProt Q16566); assay: Inhibition of ADP(ATP)-biotin probe binding to CaMK4 in human Kelly cells at 1 uM incubated for 6 hrs by KiNativ profiling analysis; format: cell-based
[10] = Downregulation of RNA polymerase 2 in human Jurkat cells at 0.5 uM measured after 6 hrs by immunoblotting analysis; format: functional
[11] = Downregulation of RNA polymerase 2 CTD phosphorylation at Ser5 residue in human Jurkat cells at 2.5 uM incubated for 6 hrs by immunoblotting analysis; format: functional
[12] = AUClast in Swiss albino mouse at 10 mg/kg, po measured upto 24 hrs by LC-MS/MS analysis; format: ADME, organism-based; design: route oral, dose 10 mg/kg, time <=24; conditions: in vivo
[13] = Downregulation of RNA polymerase 2 CTD phosphorylation at Ser5 residue in human Jurkat cells at 5 uM incubated for 6 hrs by immunoblotting analysis; format: functional
[14] = Antiproliferative activity against human TC71 cells assessed as reduction in cell viability; format: functional, cell-based; conditions: TC-71
[15] = target: T1, Cyclin-dependent kinase 12/13 (Homo sapiens) (UniProt Q14004+Q9NYV4); assay: Inhibition of CDK12/13 in human jurkat cells assessed as reduction in RNA polymerase 2 CTD phosphorylation at Ser2 residue at 2.5 uM measured after 6 hrs by immunoblotting analysis; format: cell-based
[16] = target: Cyclin-dependent kinase 12 (Homo sapiens) (UniProt Q9NYV4); assay: Covalent binding affinity to CDK12 in CDK12/CyclinK complex (unknown origin) assessed as covalent labeling of Cys1039 in gluc-protease digested CDK12 peptide 1025LASKMAPPDLPHWQDCHE1041 by CE-MS analysis
[17] = Downregulation of RNA polymerase 2 CTD phosphorylation at Ser7 residue in human Jurkat cells at 2.5 uM incubated for 6 hrs by immunoblotting analysis; format: functional
[18] = Antiproliferative activity against human Kelly cells harboring wild type CDK12 assessed as reduction in cell viability incubated for 72 hrs by CelTiter-Glo assay; format: functional, cell-based
[19] = Tmax in Swiss albino mouse at 10 mg/kg, po measured upto 24 hrs by LC-MS/MS analysis; format: ADME, organism-based; conditions: in vivo
[20] = target: Cyclin-dependent kinase 13/Cyclin-K (Homo sapiens, UniProt Q14004); assay: Inhibition of human recombinant CDK13/CyclinK assessed as reduction in substrate phosphorylation using His-c-Myc as substrate preincubated with enzyme for 5 mins followed by substrate addition for 15 mins in presence of [gamma 32P-ATP] by radioactive kinase assay; format: protein-complex assay
[21] = target: CDK12/Cyclin K (Homo sapiens, UniProt Q9NYV4); assay: Inhibition of human recombinant CDK12/CyclinK assessed as reduction in substrate phosphorylation using His-c-Myc as substrate preincubated with enzyme for 5 mins followed by substrate addition for 15 mins in presence of [gamma 32P-ATP] by radioactive kinase assay; format: protein-complex assay
[22] = target: RAF proto-oncogene serine/threonine-protein kinase (Homo sapiens) (UniProt P04049); assay: Inhibition of ADP(ATP)-biotin probe binding to RAF1 in human Kelly cells at 1 uM incubated for 6 hrs by KiNativ profiling analysis; format: cell-based
[23] = Downregulation of RNA polymerase 2 in human Jurkat cells at 2.5 uM measured after 6 hrs by immunoblotting analysis; format: functional
[24] = target: Cyclin-dependent kinase 12 (Homo sapiens) (UniProt Q9NYV4); assay: Binding affinity to CDK12 in CDK12/CyclinK complex (unknown origin) assessed as increase in CDK12 mass at 10-fold excess concentration incubated for 1 hr by LC-MS analysis
[25] = target: STE20-related kinase adapter protein beta (Homo sapiens) (UniProt Q9C0K7); assay: Inhibition of ADP(ATP)-biotin probe binding to STLK6 in human Kelly cells at 1 uM incubated for 6 hrs by KiNativ profiling analysis; format: cell-based
[26] = target: Cyclin-dependent kinase 7 (Homo sapiens) (UniProt P50613); assay: Inhibition of ADP(ATP)-biotin probe binding to CDK7 in human Kelly cells at 1 uM incubated for 6 hrs by KiNativ profiling analysis; format: cell-based
[27] = target: Ribosomal protein S6 kinase alpha-3 (Homo sapiens, UniProt P51812); assay: Inhibition of ADP(ATP)-biotin probe binding to RSK2 domain 1 in human Kelly cells at 1 uM incubated for 6 hrs by KiNativ profiling analysis; format: cell-based
[28] = target: T1, Cyclin-dependent kinase 12/13 (Homo sapiens); assay: Inhibition of CDK12/13 in human jurkat cells assessed as reduction in RNA polymerase 2 CTD phosphorylation at Ser2 residue at 5 uM measured after 6 hrs by immunoblotting analysis; format: cell-based
[29] = Antiproliferative activity against human Kelly cells harboring CDK12 C1039F mutant assessed as reduction in cell viability incubated for 72 hrs by CellTiter-Glo assay; format: functional, cell-based
[30] = target: Cyclin-dependent kinase 12 (Homo sapiens) (UniProt Q9NYV4); assay: Inhibition of ADP(ATP)-biotin probe binding to CDK12 in human Kelly cells at 1 uM incubated for 6 hrs by KiNativ profiling analysis; format: cell-based
[31] = target: T1, Cyclin-dependent kinase 12/13 (Homo sapiens); assay: Inhibition of THZ1-biotin binding from CDK12/13 in human Jurkat cells at 500 nM incubated for 6 hrs by CyclinK antibody based competitive pull down assay; format: cell-based
[32] = target: Ribosomal protein S6 kinase alpha-2 (Homo sapiens) (UniProt Q15349); assay: Inhibition of ADP(ATP)-biotin probe binding to RSK3 domain 1 in human Kelly cells at 1 uM incubated for 6 hrs by KiNativ profiling analysis; format: cell-based
[33] = Volume of distribution at steady state in Swiss albino mouse at 3 mg/kg, iv measured upto 24 hrs by LC-MS/MS analysis; format: ADME, organism-based; conditions: in vivo
[34] = target: DNA-dependent protein kinase catalytic subunit (Homo sapiens, UniProt P78527); assay: Inhibition of human DNAPK by Invitrogen ADAPTA or Z'LYTE biochemical kinase assay

Sequence of Cyclin-dependent kinase 12 (Homo sapiens) (Q9NYV4 whole entry, looked up): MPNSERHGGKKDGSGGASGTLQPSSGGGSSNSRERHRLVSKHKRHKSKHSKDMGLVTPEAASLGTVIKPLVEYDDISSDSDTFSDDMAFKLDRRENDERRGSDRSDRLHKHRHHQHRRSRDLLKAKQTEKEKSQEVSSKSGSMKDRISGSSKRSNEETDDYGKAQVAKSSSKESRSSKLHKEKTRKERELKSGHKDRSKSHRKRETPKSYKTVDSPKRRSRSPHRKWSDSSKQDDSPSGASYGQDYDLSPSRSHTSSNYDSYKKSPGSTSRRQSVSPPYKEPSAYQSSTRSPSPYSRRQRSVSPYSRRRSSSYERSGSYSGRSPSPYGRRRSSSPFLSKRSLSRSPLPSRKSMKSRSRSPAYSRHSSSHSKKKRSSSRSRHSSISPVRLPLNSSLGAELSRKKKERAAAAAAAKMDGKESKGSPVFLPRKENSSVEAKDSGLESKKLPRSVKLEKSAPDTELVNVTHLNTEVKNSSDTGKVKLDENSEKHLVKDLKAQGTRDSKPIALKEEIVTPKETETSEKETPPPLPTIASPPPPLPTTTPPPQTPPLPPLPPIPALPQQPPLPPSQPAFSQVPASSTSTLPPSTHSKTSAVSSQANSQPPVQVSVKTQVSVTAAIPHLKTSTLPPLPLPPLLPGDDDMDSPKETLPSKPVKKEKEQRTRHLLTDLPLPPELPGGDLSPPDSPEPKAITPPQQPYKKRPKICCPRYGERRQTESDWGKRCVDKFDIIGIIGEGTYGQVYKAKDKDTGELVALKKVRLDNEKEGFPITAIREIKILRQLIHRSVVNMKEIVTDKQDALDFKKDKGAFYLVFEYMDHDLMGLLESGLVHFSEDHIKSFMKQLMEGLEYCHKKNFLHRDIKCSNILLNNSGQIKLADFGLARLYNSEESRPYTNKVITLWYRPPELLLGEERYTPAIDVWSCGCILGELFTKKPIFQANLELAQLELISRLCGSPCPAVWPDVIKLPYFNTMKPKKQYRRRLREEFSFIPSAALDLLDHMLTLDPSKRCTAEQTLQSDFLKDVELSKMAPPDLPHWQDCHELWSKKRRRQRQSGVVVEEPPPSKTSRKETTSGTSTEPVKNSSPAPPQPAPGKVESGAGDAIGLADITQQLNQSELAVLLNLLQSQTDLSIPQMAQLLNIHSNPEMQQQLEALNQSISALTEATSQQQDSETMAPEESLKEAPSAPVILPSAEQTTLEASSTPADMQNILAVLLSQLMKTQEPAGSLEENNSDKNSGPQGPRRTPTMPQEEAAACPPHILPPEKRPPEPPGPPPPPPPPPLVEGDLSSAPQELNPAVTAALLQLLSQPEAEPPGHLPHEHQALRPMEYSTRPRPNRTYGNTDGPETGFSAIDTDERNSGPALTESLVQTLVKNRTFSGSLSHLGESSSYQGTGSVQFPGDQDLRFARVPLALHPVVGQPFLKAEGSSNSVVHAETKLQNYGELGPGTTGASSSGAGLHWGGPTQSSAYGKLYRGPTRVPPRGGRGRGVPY
Sequence of Cyclin-dependent kinase 13/Cyclin-K (Q14004 whole entry): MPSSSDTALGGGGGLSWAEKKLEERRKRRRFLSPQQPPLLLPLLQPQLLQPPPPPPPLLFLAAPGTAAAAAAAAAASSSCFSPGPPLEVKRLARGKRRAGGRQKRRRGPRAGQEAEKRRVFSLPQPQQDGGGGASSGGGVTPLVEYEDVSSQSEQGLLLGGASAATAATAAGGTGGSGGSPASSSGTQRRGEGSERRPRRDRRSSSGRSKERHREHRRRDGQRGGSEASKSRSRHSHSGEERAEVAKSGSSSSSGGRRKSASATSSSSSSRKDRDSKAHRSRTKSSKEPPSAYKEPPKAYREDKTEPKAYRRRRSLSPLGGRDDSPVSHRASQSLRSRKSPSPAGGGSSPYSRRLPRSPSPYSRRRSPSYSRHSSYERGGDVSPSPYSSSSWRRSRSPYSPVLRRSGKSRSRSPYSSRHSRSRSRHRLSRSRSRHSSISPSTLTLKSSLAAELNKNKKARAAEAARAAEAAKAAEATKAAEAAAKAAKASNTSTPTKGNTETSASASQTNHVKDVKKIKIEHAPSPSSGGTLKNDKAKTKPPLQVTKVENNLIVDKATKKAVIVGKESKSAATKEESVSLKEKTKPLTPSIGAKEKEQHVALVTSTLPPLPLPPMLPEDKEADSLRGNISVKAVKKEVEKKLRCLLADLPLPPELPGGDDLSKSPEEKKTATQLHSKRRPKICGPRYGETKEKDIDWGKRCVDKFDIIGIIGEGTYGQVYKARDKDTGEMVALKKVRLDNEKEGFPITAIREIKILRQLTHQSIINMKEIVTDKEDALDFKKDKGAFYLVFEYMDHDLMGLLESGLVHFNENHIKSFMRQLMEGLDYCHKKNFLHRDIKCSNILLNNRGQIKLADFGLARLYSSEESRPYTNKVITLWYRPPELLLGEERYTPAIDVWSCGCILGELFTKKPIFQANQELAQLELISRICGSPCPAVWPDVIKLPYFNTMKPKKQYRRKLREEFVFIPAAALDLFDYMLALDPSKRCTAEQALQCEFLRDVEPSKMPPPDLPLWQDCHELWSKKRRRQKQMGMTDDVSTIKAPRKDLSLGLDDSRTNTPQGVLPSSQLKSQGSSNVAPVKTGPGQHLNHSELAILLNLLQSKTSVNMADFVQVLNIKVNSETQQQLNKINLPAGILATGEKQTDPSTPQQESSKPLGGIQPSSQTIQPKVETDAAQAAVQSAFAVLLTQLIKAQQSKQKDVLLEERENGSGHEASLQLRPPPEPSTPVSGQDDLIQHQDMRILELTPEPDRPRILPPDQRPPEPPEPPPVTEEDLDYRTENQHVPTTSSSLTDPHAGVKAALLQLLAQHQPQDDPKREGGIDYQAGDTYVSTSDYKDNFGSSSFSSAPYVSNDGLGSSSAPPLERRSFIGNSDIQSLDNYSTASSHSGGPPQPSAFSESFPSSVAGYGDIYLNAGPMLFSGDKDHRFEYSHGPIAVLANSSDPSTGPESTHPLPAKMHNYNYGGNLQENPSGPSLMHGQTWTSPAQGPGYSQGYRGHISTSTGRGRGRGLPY
Sequence of Cyclin-dependent kinase 13/Cyclin-K (O75909 whole entry, further chain): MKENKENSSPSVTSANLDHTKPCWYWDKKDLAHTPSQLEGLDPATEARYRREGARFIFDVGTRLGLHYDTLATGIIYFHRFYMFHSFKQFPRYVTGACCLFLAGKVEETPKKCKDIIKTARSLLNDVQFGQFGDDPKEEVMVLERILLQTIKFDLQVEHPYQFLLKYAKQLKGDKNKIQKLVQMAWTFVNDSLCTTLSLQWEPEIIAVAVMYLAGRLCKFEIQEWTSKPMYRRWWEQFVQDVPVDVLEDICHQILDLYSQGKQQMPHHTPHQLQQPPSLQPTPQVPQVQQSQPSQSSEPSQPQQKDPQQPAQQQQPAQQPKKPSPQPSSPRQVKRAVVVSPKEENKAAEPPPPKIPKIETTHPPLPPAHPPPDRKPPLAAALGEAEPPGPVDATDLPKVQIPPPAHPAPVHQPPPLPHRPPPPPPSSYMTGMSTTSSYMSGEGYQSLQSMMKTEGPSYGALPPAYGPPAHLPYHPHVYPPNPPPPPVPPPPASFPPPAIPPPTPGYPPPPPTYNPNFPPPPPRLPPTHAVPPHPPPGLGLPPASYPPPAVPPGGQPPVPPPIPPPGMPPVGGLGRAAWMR
Sequence of Cyclin-K (Homo sapiens) (O75909 whole entry): as the sequence (O75909 whole entry, further chain) above
Sequence of CDK12/Cyclin K (O75909 whole entry): as the sequence (O75909 whole entry, further chain) above
Sequence of CDK12/Cyclin K (Q9NYV4 whole entry): as the sequence (Q9NYV4 whole entry, looked up) above
Sequence of STE20-related kinase adapter protein beta (Homo sapiens) (Q9C0K7 whole entry): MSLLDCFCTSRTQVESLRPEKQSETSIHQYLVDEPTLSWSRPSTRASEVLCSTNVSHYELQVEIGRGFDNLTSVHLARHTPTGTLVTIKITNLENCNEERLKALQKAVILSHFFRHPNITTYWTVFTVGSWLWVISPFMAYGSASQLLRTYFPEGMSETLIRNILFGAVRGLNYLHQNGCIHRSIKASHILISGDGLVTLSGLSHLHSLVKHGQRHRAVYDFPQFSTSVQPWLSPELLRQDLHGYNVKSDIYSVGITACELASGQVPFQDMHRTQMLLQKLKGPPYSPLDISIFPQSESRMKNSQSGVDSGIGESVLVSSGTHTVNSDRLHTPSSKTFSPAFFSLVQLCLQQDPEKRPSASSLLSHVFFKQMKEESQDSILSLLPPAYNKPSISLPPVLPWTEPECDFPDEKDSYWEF
Sequence of Ribosomal protein S6 kinase alpha-2 (Homo sapiens) (Q15349 whole entry, the tested form may be a part): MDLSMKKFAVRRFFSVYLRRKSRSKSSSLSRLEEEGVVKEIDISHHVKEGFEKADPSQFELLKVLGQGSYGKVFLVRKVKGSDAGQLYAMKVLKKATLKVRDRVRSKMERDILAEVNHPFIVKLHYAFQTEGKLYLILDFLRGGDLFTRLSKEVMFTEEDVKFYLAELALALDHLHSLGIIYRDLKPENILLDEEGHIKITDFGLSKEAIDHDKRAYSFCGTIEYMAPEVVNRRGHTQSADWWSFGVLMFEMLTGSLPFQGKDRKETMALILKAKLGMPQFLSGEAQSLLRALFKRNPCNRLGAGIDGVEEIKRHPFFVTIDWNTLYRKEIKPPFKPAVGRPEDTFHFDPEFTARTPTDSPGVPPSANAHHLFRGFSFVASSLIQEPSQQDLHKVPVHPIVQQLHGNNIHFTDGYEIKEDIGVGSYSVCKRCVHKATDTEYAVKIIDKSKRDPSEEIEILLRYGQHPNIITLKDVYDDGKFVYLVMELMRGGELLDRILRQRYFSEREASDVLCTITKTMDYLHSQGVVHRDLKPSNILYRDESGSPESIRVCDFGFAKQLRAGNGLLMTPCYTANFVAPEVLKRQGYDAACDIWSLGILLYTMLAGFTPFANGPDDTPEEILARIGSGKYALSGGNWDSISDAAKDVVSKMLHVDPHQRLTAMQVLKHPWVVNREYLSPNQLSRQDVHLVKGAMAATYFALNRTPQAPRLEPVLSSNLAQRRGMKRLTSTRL

inhibition [1]: 45.9%
inhibition [3]: 33.9%
Activity [4]: inactive
Cmax [5]: 1511 ng/mL
Cmax [6]: 272 ng/mL
inhibition [9]: 38.2%
AUClast [12]: 1043 ng·h/mL
inhibition [15]: 87%
Activity [16]: Active
Tmax [19]: 2 h
IC50 [20]: 283 nM
IC50 [21]: 156 nM
inhibition [22]: 37.8%
Activity [24]: Active
inhibition [25]: 44.5%
inhibition [26]: 39.2%
inhibition [27]: 46%
inhibition [28]: 89%
inhibition [30]: 76.8%
inhibition [31]: Active
inhibition [32]: 41.6%
Vdss [33]: 3.9 L/kg
IC50 [34]: > 10000 nM
SMILES: CN(C)C/C=C/C(=O)Nc1ccc(O[C@@H]2CCC[C@@H](Nc3ncc(Cl)c(-c4c[nH]c5ccccc45)n3)C2)cc1
Activity [2]: Toxic
inhibition at 0.5 µM [7]: 0%
inhibition at 5 µM [8]: 74%
inhibition at 0.5 µM [10]: 0%
inhibition at 2.5 µM [11]: 47%
inhibition at 5 µM [13]: 47%
IC50 [14]: 160 nM
inhibition at 2.5 µM [17]: 58%
IC50 [18]: 42.2 nM
inhibition at 2.5 µM [23]: 15%
IC50 [29]: 225 nM
